Data on eleven compounds can be found in paper PMC10907560, “Significant reduction of activity retention in the kidneys via optimized linker sequences in radiohybrid-based minigastrin analogs” (EJNMMI Research, 2024).

The subject of data set [1] is AR42J tumor-bearing CB17-SCID mice. The note with it: 24 h p.i.; cited from earlier work.
The target of data set [2] is T1, Human serum albumin (HSA) (Homo sapiens, UniProt P02768).
T1 construct: purchased Daicel, Tokyo, Japan H13H-2433
Description: Human serum albumin binding via high performance affinity chromatography (HPAC). The following applies: Chiralpak HSA column. The class given is in vitro ADME. On the procedure:
Human serum albumin (HSA) binding was determined via high performance affinity chromatography (HPAC), according to previously published protocols. Human serum albumin interaction was calculated according to the retention time (n = 1) of our compounds on a Chiralpak HSA column in dependence of nine reference compounds with known HSA interaction.
Human serum albumin binding was determined via high performance affinity chromatography. Therefore, a Chiralpak HSA column (50 × 3 mm, 5 µm, H13H-2433, Daicel, Tokyo, Japan) was used at a constant flow rate of 0.5 ml/min at room temperature. Mobile phase A consisted of a freshly prepared aqueous solution of NH4OAc (pH = 6.9, 50 mM) and mobile phase B of isopropanol. Calibration of the column was performed daily prior to experiments, by determining the retention times of nine reference substances displaying a HSA binding from 13 to 99%. HPLC gradient for all compounds tested was 100% A (0 to 3 min), followed by 80% A (3 to 40 min). All substances tested, were dissolved in a mixture of A/B (0.5 mg/mL, 1:1, v/v). OriginPro 2016G software (Northampton, United States) was used for non-linear regression and data evaluation.

Data set [3] can be described thus: Lipophilicity, n-octanol/PBS distribution coefficient logD7.4. It is filed as physicochemical. The following applies: 177Lu-labeled peptide; n-octanol/PBS (1/1), n ≥ 5. On the procedure:
For determination of lipophilicity, the respective ^177Lu-Labeled peptide precursor (~ 1 MBq, 10 µL in 0.04 M HCl) was added to a solution of n-octanol/PBS (1/1, v/v, 1 mL) and vigourously mixed for 3 min at room temperature (n ≥ 5). Afterwards both phases were seperated using a Biofuge 15 centrifuge (Heraus Sepatech GmbH, Osterode, Germany) at 9,000 rpm for 5 min. 200 µL aliquots of both layers were collected separately, measured in a γ-counter (Perkin Elmer, Waltham, MA, USA) and the logD7.4 value was obtained.

“And” between values parts separate entries of the source, which are not always exact repeats. Identical values can stand only once. Numbered stars: 1 amine (or outer) side, 2 acyl side, 3 side chain; on linkers, the order of the positions; unused ones are H or OH. Square brackets hold non-standard residues; d marks the D form. Peptide text beside a SMILES is read from it. * marks the point of attachment. Benzoyl(4-SiFtBu2) = CC(C)(C)[Si](F)(c1ccc(C(=O)*)cc1)C(C)(C)C; DOTA = O=C(O)CN1CCN(CC(=O)O)CCN(CC(=O)*)CCN(CC(=O)O)CC1; PEG12 = NCCOCCOCCOCCOCCOCCOCCOCCOCCOCCOCCOCCOCCC(=O)O; d(γGlu) = O=C(O)[C@@H](CCC(=O)[*:2])N[*:1]; PEG8 = NCCOCCOCCOCCOCCOCCOCCOCCOCCC(=O)O; 1Nal = N[C@@H](Cc1cccc2ccccc12)C(=O)O; PEG5 = NCCOCCOCCOCCOCCOCCC(=O)O; NMeNle = CCCC[C@H](NC)C(=O)O; PEG4 = NCCOCCOCCOCCOCCC(=O)O; dDap = NC[C@@H](N)C(=O)O

T1 sequence (P02768 25-609): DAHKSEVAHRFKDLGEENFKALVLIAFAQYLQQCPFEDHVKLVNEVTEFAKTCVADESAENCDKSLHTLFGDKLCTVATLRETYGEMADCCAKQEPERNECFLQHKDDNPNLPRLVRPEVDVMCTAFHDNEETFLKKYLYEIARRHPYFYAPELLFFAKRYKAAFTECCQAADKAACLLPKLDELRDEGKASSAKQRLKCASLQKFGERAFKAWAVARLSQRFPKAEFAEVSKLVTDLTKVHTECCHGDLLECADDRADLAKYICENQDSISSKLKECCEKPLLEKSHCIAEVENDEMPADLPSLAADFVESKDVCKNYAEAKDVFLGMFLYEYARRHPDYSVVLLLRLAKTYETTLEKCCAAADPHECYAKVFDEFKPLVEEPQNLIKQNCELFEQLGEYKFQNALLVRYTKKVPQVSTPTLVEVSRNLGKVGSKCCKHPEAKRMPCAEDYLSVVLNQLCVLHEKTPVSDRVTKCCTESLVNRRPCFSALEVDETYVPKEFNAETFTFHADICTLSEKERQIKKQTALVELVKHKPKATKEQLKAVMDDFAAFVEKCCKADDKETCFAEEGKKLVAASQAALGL

Turning to `CCCC[C@H](NC(=O)[C@H](Cc1c[nH]c2ccccc12)NC(=O)CNC(=O)[C@H](Cc1ccc(O)cc1)NC(=O)[C@H](C)NC(=O)CC[C@@H](NC(=O)CC[C@@H](NC(=O)CC[C@@H](NC(=O)CC[C@@H](NC(=O)CC[C@@H](NC(=O)CC[C@@H](NC(=O)CC[C@@H](NC(=O)CC[C@@H](NC(=O)[C@@H](CNC(=O)c1ccc([Si](F)(C(C)(C)C)C(C)(C)C)cc1)NC(=O)CN1CCN(CC(=O)O)CCN(CC(=O)O)CCN(CC(=O)O)CC1)C(=O)O)C(=O)O)C(=O)O)C(=O)O)C(=O)O)C(=O)O)C(=O)O)C(=O)O)C(=O)N[C@@H](CC(=O)O)C(=O)N[C@@H](Cc1ccccc1)C(N)=O` [[^177Lu]Lu-DOTA-rhCCK-18, DOTA-D-Dap(p-SiFA)-(D-γ-Glu)8-Ala-Tyr-Gly-Trp-Nle-Asp-Phe-NH2, metal not drawn], in data set [1], the “activity levels in the bone” value was 0.20 ± 0.03 %ID/g, the “activity levels in the liver” value is 0.22 ± 0.01 %ID/g, the “activity levels in the spleen” value is 0.34 ± 0.09 %ID/g and the “activity levels in the stomach” value is 4.3 ± 1.1 %ID/g. In data set [1], the “activity levels in the tumor” value is listed as 25.4 ± 4.7 %ID/g, the “activity uptake in the kidneys” value is listed as 134 ± 18 %ID/g and the tumor-to-kidney ratio was 0.19 ± 0.01. Besides, in data set [2] (n = 1, listed as [^natLu]Lu-DOTA-rhCCK-18), the HSA binding is 87.1% and 87%.
In the case of `CCCC[C@@H](C(=O)N[C@@H](CC(=O)O)C(=O)N[C@@H](Cc1cccc2ccccc12)C(N)=O)N(C)C(=O)[C@H](Cc1c[nH]c2ccccc12)NC(=O)CCOCCOCCOCCOCCNC(=O)CC[C@@H](NC(=O)CCOCCOCCOCCOCCOCCNC(=O)[C@@H](CNC(=O)c1ccc([Si](F)(C(C)(C)C)C(C)(C)C)cc1)NC(=O)CN1CCN(CC(=O)O)CCN(CC(=O)O)CCN(CC(=O)O)CC1)C(=O)O` [[^nat/177Lu]Lu-DOTA-rhCCK-67, DOTA-D-Dap(p-SiFA)-(PEG)4-B, metal not drawn] ({DOTA}-[dDap](Benzoyl(4-SiFtBu2))[PEG5][d(γGlu)][PEG4]W[NMeNle]D[1Nal]-NH2), in data set [3], the pH-dependent lipophilicity (logD) was -1.05 ± 0.09. This compound gave an HSA binding in data set [2] (n = 1) of 92.9%.
`CCCC[C@@H](C(=O)N[C@@H](CC(=O)O)C(=O)N[C@@H](Cc1cccc2ccccc12)C(N)=O)N(C)C(=O)[C@H](Cc1c[nH]c2ccccc12)NC(=O)CCOCCOCCOCCOCCNC(=O)CC[C@@H](NC(=O)CCOCCOCCOCCOCCOCCNC(=O)CC[C@@H](NC(=O)[C@@H](CNC(=O)c1ccc([Si](F)(C(C)(C)C)C(C)(C)C)cc1)NC(=O)CN1CCN(CC(=O)O)CCN(CC(=O)O)CCN(CC(=O)O)CC1)C(=O)O)C(=O)O` [[^nat/177Lu]Lu-DOTA-rhCCK-68, DOTA-D-Dap(p-SiFA)-D-γ-Glu-(PEG)4-B, metal not drawn] came in with a pH-dependent lipophilicity (logD) in data set [3] of -1.65 ± 0.09. This compound also returned an HSA binding in data set [2] (n = 1) of 91.2%.
The compound `CCCC[C@@H](C(=O)N[C@@H](CC(=O)O)C(=O)N[C@@H](Cc1cccc2ccccc12)C(N)=O)N(C)C(=O)[C@H](Cc1c[nH]c2ccccc12)NC(=O)CCOCCOCCOCCOCCNC(=O)CC[C@@H](NC(=O)CCOCCOCCOCCOCCOCCOCCOCCOCCNC(=O)CC[C@@H](NC(=O)[C@@H](CNC(=O)C[N+](C)(C)Cc1ccc([Si](F)(C(C)(C)C)C(C)(C)C)cc1)NC(=O)CN1CCN(CC(=O)O)CCN(CC(=O)O)CCN(CC(=O)O)CC1)C(=O)O)C(=O)O` [[^nat/177Lu]Lu-DOTA-rhCCK-71, DOTA-D-Dap(SiFAlin)-D-γ-Glu-(PEG)7-B, metal not drawn] had a logD in data set [3] of -1.63 ± 0.06. For the same compound, in data set [2] (n = 1), the HSA binding stood at 89.1%.
On the same counts, the results for `CCCC[C@@H](C(=O)N[C@@H](CC(=O)O)C(=O)N[C@@H](Cc1cccc2ccccc12)C(N)=O)N(C)C(=O)[C@H](Cc1c[nH]c2ccccc12)NC(=O)CCOCCOCCOCCOCCNC(=O)CC[C@@H](NC(=O)CCOCCOCCOCCOCCOCCOCCOCCOCCNC(=O)CC[C@@H](NC(=O)[C@@H](CNC(=O)c1cc(C(=O)O)cc([Si](F)(C(C)(C)C)C(C)(C)C)c1)NC(=O)CN1CCN(CC(=O)O)CCN(CC(=O)O)CCN(CC(=O)O)CC1)C(=O)O)C(=O)O` [[^nat/177Lu]Lu-DOTA-rhCCK-72, DOTA-D-Dap(SiFA-ipa)-D-γ-Glu-(PEG)7-B, metal not drawn] are -2.32 ± 0.03 and 89.3%.
In turn, `CCCC[C@@H](C(=O)N[C@@H](CC(=O)O)C(=O)N[C@@H](Cc1cccc2ccccc12)C(N)=O)N(C)C(=O)[C@H](Cc1c[nH]c2ccccc12)NC(=O)CCOCCOCCOCCOCCNC(=O)CC[C@@H](NC(=O)CCOCCOCCOCCOCCOCCOCCOCCOCCNC(=O)[C@@H](CNC(=O)c1ccc([Si](F)(C(C)(C)C)C(C)(C)C)cc1)NC(=O)CN1CCN(CC(=O)O)CCN(CC(=O)O)CCN(CC(=O)O)CC1)C(=O)O` [[^nat/177Lu]Lu-DOTA-rhCCK-73, DOTA-D-Dap(p-SiFA)-(PEG)7-B, metal not drawn] ({DOTA}-[dDap](Benzoyl(4-SiFtBu2))[PEG8][d(γGlu)][PEG4]W[NMeNle]D[1Nal]-NH2) showed a pH-dependent lipophilicity (logD) in data set [3] of -1.02 ± 0.06. Besides, in data set [2] (n = 1), the HSA binding came to 90.4%.
As for `CCCC[C@@H](C(=O)N[C@@H](CC(=O)O)C(=O)N[C@@H](Cc1cccc2ccccc12)C(N)=O)N(C)C(=O)[C@H](Cc1c[nH]c2ccccc12)NC(=O)CCOCCOCCOCCOCCNC(=O)CC[C@@H](NC(=O)CCOCCOCCOCCOCCOCCOCCOCCOCCOCCOCCOCCOCCNC(=O)[C@@H](CNC(=O)c1ccc([Si](F)(C(C)(C)C)C(C)(C)C)cc1)NC(=O)CN1CCN(CC(=O)O)CCN(CC(=O)O)CCN(CC(=O)O)CC1)C(=O)O` [[^nat/177Lu]Lu-DOTA-rhCCK-74, DOTA-D-Dap(p-SiFA)-(PEG)11-B, metal not drawn] ({DOTA}-[dDap](Benzoyl(4-SiFtBu2))[PEG12][d(γGlu)][PEG4]W[NMeNle]D[1Nal]-NH2), in data set [3], the logD was -1.19 ± 0.07. In addition, the HSA binding in data set [2] (n = 1) was 87.2%.
In the same order, the values of `CCCC[C@@H](C(=O)N[C@@H](CC(=O)O)C(=O)N[C@@H](Cc1cccc2ccccc12)C(N)=O)N(C)C(=O)[C@H](Cc1c[nH]c2ccccc12)NC(=O)CCOCCOCCOCCOCCNC(=O)CC[C@@H](NC(=O)CCOCCOCCOCCOCCOCCOCCOCCOCCOCCOCCOCCOCCNC(=O)CC[C@@H](NC(=O)[C@@H](CNC(=O)C[N+](C)(C)Cc1ccc([Si](F)(C(C)(C)C)C(C)(C)C)cc1)NC(=O)CN1CCN(CC(=O)O)CCN(CC(=O)O)CCN(CC(=O)O)CC1)C(=O)O)C(=O)O` [[^nat/177Lu]Lu-DOTA-rhCCK-75, DOTA-D-Dap(SiFAlin)-D-γ-Glu-(PEG)11-B, metal not drawn] are -1.15 ± 0.05 and 90.9%.
On the same counts, the results for `CCCC[C@@H](C(=O)N[C@@H](CC(=O)O)C(=O)N[C@@H](Cc1cccc2ccccc12)C(N)=O)N(C)C(=O)[C@H](Cc1c[nH]c2ccccc12)NC(=O)CCOCCOCCOCCOCCNC(=O)CC[C@@H](NC(=O)CCOCCOCCOCCOCCOCCOCCOCCOCCOCCOCCOCCOCCNC(=O)CC[C@@H](NC(=O)[C@@H](CNC(=O)c1ccc([Si](F)(C(C)(C)C)C(C)(C)C)cc1)NC(=O)CN1CCN(CC(=O)O)CCN(CC(=O)O)CCN(CC(=O)O)CC1)C(=O)O)C(=O)O` [[^nat/177Lu]Lu-DOTA-rhCCK-76, DOTA-D-Dap(p-SiFA)-D-γ-Glu-(PEG)11-B, metal not drawn] are -1.82 ± 0.09 and 86.2%.
Turning to “DOTA-(D-Glu)6-Ala-Tyr-Gly-Trp-Nle-Asp-Phe-NH2 [[^177Lu]Lu-DOTA-PP-F11N]”, in data set [1], the “activity levels in the tumor” value is 1.9 ± 0.8 %ID/g and the kidney retention is 3.1 ± 0.6 %ID/g.
Regarding “DOTA-D-Glu-Ala-Tyr-Gly-Trp-(N-Me)Nle-Asp-1-Nal-NH2 [[^177Lu]Lu-DOTA-MGS5]”, in data set [1], the “activity levels in the tumor” value is 11.0 ± 1.2 %ID/g, the kidney retention is recorded as 1.3 ± 0.4 %ID/g, the tumor-to-kidney ratio is 9.4 ± 3.3 and the tumor-to-stomach ratio is recorded as 4.4 ± 0.7.

A word on the logD: it is the decadic logarithm of the distribution of all forms, ionised or not, between an organic phase and buffer at a given pH. A low value points to lower lipophilicity.
